Data on one compound can be found in patent publication US20060252733A1, “Betulin, betulin derivatives, betulinic acid and betulinic acid derivatives as novel therapeutics in the treatment of disease of lipid and/or glucose metabolism” (Novelix Pharmaceuticals, Inc., priority 2005, published 2006).

In brackets after ≈: the same amount, converted by molar mass.

The target of assay [1] is T1, Apolipoprotein A1 (Bos taurus, UniProt P15497).
T1 construct: from tissue; host or cells: fetal calf serum
T1 sequence (P15497 25-265 limits assumed): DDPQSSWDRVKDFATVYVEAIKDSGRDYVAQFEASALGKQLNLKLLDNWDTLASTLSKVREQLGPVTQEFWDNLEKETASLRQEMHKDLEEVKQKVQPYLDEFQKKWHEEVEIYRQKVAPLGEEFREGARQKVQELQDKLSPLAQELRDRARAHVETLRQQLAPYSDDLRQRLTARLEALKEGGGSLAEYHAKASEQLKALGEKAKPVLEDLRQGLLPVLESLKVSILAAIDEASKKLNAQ
The experiment in a line: Identification of NVX-207 binding proteins (Sulfo-SBED biotin label transfer, 2-D gel, MALDI-TOF-MS). As to conditions: Fetal Calf Serum, NVX-207 coupled to Sulfo-SBED at 5 μg/ml, with or without 20-fold molar excess of unlabeled NVX-207. An excerpt:
The presence of a primary amine group on NVX-207, a unique feature of this derivative compared to other known betulinic acid derived compounds, allows the coupling of other chemical compounds. A commercially available kit from Pierce was used to couple NVX-207 with biotin (Pierce-Sulfo-BED). This procedure allows the identification of NVX-207 binding proteins in protein lysates from any source. This procedure is generically illustrated in FIG. 2. In short, the amine groups of NVX-207 are modified via the Sulfo-NHS moiety of Sulfo-SBED. This derivatized NVX-207 is then incubated in the dark with a lysate or with a purified putative “prey” protein. The bait and prey complex is then captured or trapped by exposing the sample to high-intensity UV light, which activates the phenylazide moiety of Sulfo-SBED. This photoreactive group covalently links to the bound prey protein, capturing the interacting complex. […] The resulting biotin derivatized complex or prey protein can be detected using streptavidin-HRP or an anti-biotin antibody and chemiluminescent detection. […]
NVX-207 (at 5 μg/ml final concentration) coupled to […] with or without a 20-fold molar excess of unlabeled NVX-207 and resolved by 2-D gel electrophoresis. […] Several spots of similar molecular weight (˜24 kDa) and differing IP (in the range of 4.8 to 5.6) were detected by streptavidin-POD after 2-dimensional (2-D) gel electrophoresis.

Assay [2] has as its system human lung cancer cell line (A549). The experiment in a line: NVX-207 IC50/IC80 concentrations in A549 cell cultures. It is filed as cell-based. The settings on record: A549 cells.

As to `C=C(C)[C@@H]1CC[C@]2(C(=O)OCC(N)(CO)CO)CC[C@]3(C)[C@H](CC[C@@H]4[C@@]5(C)CC[C@H](OC(C)=O)C(C)(C)[C@@H]5CC[C@]43C)[C@@H]12` [NVX-207], in assay [1], the “binding to Apolipoprotein A1” value is listed as “binds to Apolipoprotein A1”. Besides, in assay [2], the IC50 was 1.5 µg/mL (≈ 2.49 µM) and the IC80 came to 2.0 µg/mL (≈ 3.32 µM).

The term IC50 denotes the concentration needed to halve the response being measured. Low readings indicate greater potency in that assay, high ones weaker potency in that assay. One may read the IC80 as the point of the concentration-response curve where the effect stands at 80%. Low values mean greater potency, high ones weaker potency.
